# Assay results from publication PMC12216609, “Inhibitors of eIF1A-ribosome interaction unveil uORF-dependent regulation of translation initiation and antitumor and antiviral effects” (The EMBO Journal, 2025).
# Several values for one entry are separate records, joined by “and”; a condition that tells them apart may be missing. Identical values can stand only once.
# Columns and labels:
# [1] = system: uORF-bearing 5'UTR firefly reporters in HEK293T cells; test: uORF reinitiation / leaky scanning firefly reporters; conditions: for 95nt from uORF to main ORF experiment, minus 95nt, average (DMSO = 1): minus 95nt reporter; for averages of FF vs RL / FF vs RL / averages of FF vs RL 2 / FF vs RL 2: 95nt experiment; for averages of FF vs RL 2 / FF vs RL 2: block FF-2 (c113)
# Source text: (M) The reference and uORF-bearing reporters were transfected to HEK293T cells together with RL, which served to normalize translation efficiency. The reporter activities are represented as firefly vs RL; n ≥3 independent biological replicates, error bars represent SEM. *P < 0.05, **P < 0.01, Student t test. (N) Firefly Reporters (J) were transfected to HEK293T cells together with normalizing RL. […] Results are represented as firefly vs. RL normalized to DMSO in each biological replicate; n = 4, error bars represent SEM. *P < 0.05, **P < 0.01, Student t test.
# In the first and second, we inserted an out-of-frame uAUG 46 or 95 nucleotides before the main ORF, respectively, followed by a downstream stop codon generating an uORF of 10 amino acids. In these constructs, the translation from the main ORF could be either by reinitiation or leaky scanning. In the third construct, this out of frame uAUG lacks a stop codon, causing initiation from the main ORF to exclusively occur via leaky scanning (Fig. 4L). These reporters were transfected into HEK293T cells together with RL luciferase reporter for normalizing transfection efficiency. […] We next examined these reporters in the presence of 1Ais.
# eIF1A-RPS10 interaction = biological target: T1, eIF1A-RPS10 interaction (Homo sapiens, UniProt P46783+P47813); test: Split-Renilla luciferase eIF1A-RPS10 interaction screen, dose-response; type: biochemical; conditions: Appendix Table S1; read-out: IC50 from the split RL screen
# T1 construct: made in house; host or cells: E. coli BL21 (PRSFduet); unpurified lysate supernatant
# T1 sequence (P47813 whole entry, one chain of several): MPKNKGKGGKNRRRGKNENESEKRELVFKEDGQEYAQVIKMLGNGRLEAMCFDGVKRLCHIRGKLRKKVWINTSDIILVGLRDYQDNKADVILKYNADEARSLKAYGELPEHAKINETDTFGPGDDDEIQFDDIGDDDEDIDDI
# Method: While knockdown (KD) studies of eIF1A provided valuable insights into its role in mammalian cell translation (Sehrawat et al, [2019]), this approach presents several limitations. First, it fails to elucidate the functional significance of the opposing functions of eIF1A N- and C-terminal tails with respect to scanning and start codon fidelity. Second, the extended duration required for achieving efficient knockdown, 48–72 h, impairs our ability to differentiate between direct and indirect effects. To overcome these constraints, we set out to develop small-molecule inhibitors targeting eIF1A. Guided by structural and biochemical studies showing eIF1A binding to the small ribosomal subunit at the A-site and interacting directly with RPS10 through its N-terminal tail (Haimov et al, [2017]; Passmore et al, [2007]; Sehrawat et al, [2019]), our approach focused on disrupting the interaction between eIF1A and RPS10. […] The interaction between eIF1A and RPS10 brings the two parts together, leading to the reconstitution of the enzymatic activity (Haimov et al, [2017]). In this system, the spatial arrangement of the two RL parts is critical for the enzymatic activity, making it sensitive not only to direct interference with the interacting proteins but also to changes in the conformation of the fused proteins. In the eIF1A-RPS10 split-RL pair, the C-terminus of eIF1A is fused to N-RL (Fig. 1A), in order to maintain the NTT accessible to RPS10 binding. This pair was cloned and expressed in bacteria as recombinant proteins and used to screen a library of ~50,000 small molecules from diverse sources (Ashkenazi et al, [2017]).
# eIF1A-ΔC-Renilla and RPS10-ΔN-Renilla were transformed into BL21 E. coli by heat shock transformation. A bacterial starter of 5 ml LB was incubated overnight at 37 °C and transferred into 1 L LB for incubation at 37 °C until OD ~ 0.5–0.7. Next, protein expression was induced with 0.5 mM IPTG, and bacterial cells were incubated overnight at 16 °C. Bacterial cell pellet was collected after centrifugation (3000 RPM, 15 min), resuspended in 20 ml TKE buffer (Tris 10 mM, KCl 100 mM, EDTA 0.1 mM), sonicated (bath sonicator, 24 cycles of 30 s) and centrifuged again (15000 RPM, 30 min). Supernatants were collected, analyzed for RL activity, and then used for high throughput drug screen (HTS) at the Weizmann G-INCPM HTS unit as described (Ashkenazi et al, [2017]). In addition to the standard controls of this protocol, the two parts of the split RL, without eIF1A or RPS10, were tested as controls. Selected compounds were purchased from Sigma-Aldrich and Enamine. Compound powders were resuspended in DMSO for a final concentration of 10 mM and stored at −20 °C.
# [2] = system: CUG/GUG vs AUG start codon luciferase reporters in HEK293T cells; test: Near-cognate AUG starting codon fidelity reporter assay (GUG, CUG vs AUG); type: cell-based; conditions: for GUG vs AUG data (%) / GUG vs AUG (%) Average: compound at 20uM; for GUG vs AUG data (%): individual repeat; for GUG vs AUG (%) Average: summary average of repeats, DMSO control average […]; for CUG vs AUG (%): CUG start codon reporter relative to AUG reporter (AUG = 100); for CUG vs AUG (%) / GUG vs AUG (%): single-experiment calculation; for GUG vs AUG (%): GUG start codon reporter relative to AUG reporter (AUG = 100)
# Method: We next considered the importance of eIF1A in controlling start codon fidelity in yeast and mammalian cells (Martin-Marcos et al, [2011]; Martin-Marcos et al, [2017]; Sehrawat et al, [2019]; She et al, [2023]) and tested how inhibition of eIF1A by 1Ais affects the initiation from near-cognate AUG. The effect of 1Ais was analyzed using firefly luciferase reporters bearing either AUG (control), CUG, or GUG as the exclusive translation initiation sites. Co-transfected GFP reporter served as an internal control for transfection efficiency.
# For the near-cognate AUG Starting codon fidelity reporter assay, HEK293T cells were transfected with 100 ng of the previously described luciferase reporter constructs driven either by AUG, CUG, and GUG (Tang et al, [2017]) together with GFP expressing plasmid (20 ng) as normalizing control. Luciferase and GFP levels were determined as described above.
# Appendix Figure S1: (A) HEK293T cells were transfected with Luciferase reporter genes with either CUG or AUG as their exclusive starting codon. 6 hours after transfection, cells were exposed to 1Ais, and the luminescence from all constructs was measured after overnight incubation. Bars represent the ratio between luminescence from the AUG starting codon and CUG after normalization with co-transfected GFP; Error bars represent SEM, * denotes p<0.05 (T-test comparing to DMSO control), n=≥4 independent biological replicates.
# [3] = system: cap-proximal AUG GFP reporter in HEK293T cells; type: cell-based; conditions: GFP WB densitometry; 20 µM overnight; dmso 0.965946
# Source text: Translation from an AUG preceded by a very short 5'UTR (less than 30 nt) is usually inefficient and frequently bypassed, resulting in initiation from a downstream AUG, a phenomenon known as leaky scanning. […] To examine the impact of 1Ais on short 5'UTR initiation, we used a GFP reporter gene containing an AUG located 16 nt downstream from the 5' end followed by a second in-frame downstream AUG (Fig. 1F; Appendix Fig. S1B). Cells were transfected with this GFP reporter gene followed by exposure to DMSO (vehicle) and 1Ais. Initiations from upstream (US) or downstream (DS) AUGs were determined by western blot (WB) with anti-GFP antibodies and the ratio between the US and DS AUG was determined.
# For the analysis of translation from very short 5'UTR and Leaky scanning, HEK293T cells were transfected with a GFP (20 ng/well) reporter gene driven by a cap-proximal and downstream AUGs (Elfakess et al, [2011]) together with a luciferase reporter gene (100 ng/well) as normalizing control and treated with 20 µM of 1Ais as described above. GFP levels were determined by Western blot (WB) (GFP antibody, Abcam #ab290) and quantified by densitometry (ImageJ) and normalized to the measured luciferase activity.
# HEK293T cells were transfected with the GFP reporter gene schematically shown on the top. The first
# AUG is […] from the 5’ end and the downstream AUG is in the same frame. Six hours after transfection, cells were treated with 1Ais. After overnight exposure to 1Ais, GFP expression was analyzed by WB using anti -GFP antibodies.
# US/DS ratio was determined by densitometry and represents the long protein expression (upstream AUG, US) vs the […]
# biological replicates. (C-D) Analysis of reporter genes mRNA levels after 1Ais treatment.
# [4] = system: IRF7 5'UTR firefly luciferase reporter in HEK293T cells; conditions: for LONG (summary - All), normalized to DMSO: Long reporter; for LONG (summary - All), normalized to DMSO / SHORT (summary - All), normalized to DMSO / average ( long vs short ratio): 20 µM; for LONG (summary - All), normalized to DMSO / SHORT (summary - All), normalized to DMSO: individual replicates, outliers excluded, DMSO = 1; for SHORT (summary - All), normalized to DMSO: Short reporter; for average ( long vs short ratio): summary - All;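 on all read-outs here: luciferase signal corrected by a co-transfected GFP reporter for transfection efficiency, read after overnight compound exposure, with Long and Short reporters differing in 5'UTR length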
# Method: For the effect on ribosomal scanning, we used two firefly luciferase reporter genes that differ in their 5'UTR length (Fig. 1C). […] Cells were transfected with these reporters along with a GFP reporter gene used to normalize transfection efficiency. After an overnight 1Ai or DMSO (vehicle control) exposure, luciferase and GFP expression were measured, and normalized activity was determined.
# For the reference vs IRF7 5'UTR luciferase reporter assay, HEK239T cells in a 12-well plate were transfected with the previously described IRF7 5'UTR or reference firefly luciferase reported genes (Sehrawat et al, [2019]) (100 ng/well) together with GFP (20 ng/well) that served as an internal control by CaCl2 transfection. After 6 h, half of the growth medium was replaced with a medium containing the different compounds, reaching a final concentration of 20 µM. Twenty-four hours after transfection, transfection efficiency was evaluated using GFP fluorescence intensity (Cytation 5, ex/em: 470/525). Cells were harvested in 50 µL Reported lysis buffer (RLB) and put on a shaker for 10 min. From each well 5 µL were taken in duplicates and tested by luminometer.
# [5] = compound at 20uM (summary head)
smiles,measurement,setting,value
O=C(COc1ccccc1[N+](=O)[O-])NCc1ccc(-c2ccc(Br)cc2)o1 [1A-4700],"firefly/Renilla normalized to DMSO, minus46 reporter","[1]; 95nt from uORF to main ORF experiment summary, experiment 240919, reporter minus46, DMSO = 1",0.3368 and 0.3707
same,"firefly/Renilla normalized to DMSO, minus 95nt reporter","[1]; 95nt from uORF to main ORF experiment summary, experiment 240919, reporter minus 95nt, DMSO = 1",1.123 and 1.106
same,"firefly/Renilla normalized to DMSO, ref reporter","[1]; 95nt from uORF to main ORF experiment summary, experiment 240919, reporter ref, DMSO = 1",0.8256 and 0.6094
same,"95nt from uORF to main ORF experiment, minus46, average (DMSO = 1)",[1]; minus46 reporter,0.3537
same,"95nt from uORF to main ORF experiment, minus 95nt, average (DMSO = 1)",[1],1.115
same,"95nt from uORF to main ORF experiment, ref, average (DMSO = 1)",[1]; ref reporter,0.7175
O=C1c2ccccc2NC(c2cc(O)c(O)c(Cl)c2)N1c1ccccc1 (stereo not drawn) [1A-8214],averages of FF vs RL,"[1]; block FF-1 (c104), reporter minus46, DMSO 0.0248618",0.02612
same,FF vs RL,"[1]; block FF-1 (c104), reporter minus 46, DMSO 2.74E-02, 2.23E-02",2.94E-02 and 2.28E-02
same,FF vs RL,"[1]; block FF-1 (c104), reporter minus 46 plus 50, DMSO 2.94E-02, 2.09E-02",1.20E-02 and 1.67E-02
same,averages of FF vs RL,"[1]; block FF-1 (c104), reporter minus 95, DMSO 0.0251627",0.01437
same,averages of FF vs RL,"[1]; block FF-1 (c104), reporter ref, DMSO 0.0298915",0.04961
same,FF vs RL,"[1]; block FF-1 (c104), reporter reference, DMSO 2.79E-02, 3.19E-02",6.51E-02 and 3.41E-02
same,FF vs RL,"[1]; block FF-1 (c131), reporter minus 46, DMSO 0.17626, 0.185518",0.2074 and 0.2118
same,averages of FF vs RL,"[1]; block FF-1 (c131), reporter minus46, DMSO 0.180889",0.2096
same,FF vs RL,"[1]; block FF-1 (c131), reporter minus 46 plus 50, DMSO 0.437858, 0.481275",0.464 and 0.5005
same,averages of FF vs RL,"[1]; block FF-1 (c131), reporter minus 95, DMSO 0.459566",0.4822
same,averages of FF vs RL,"[1]; block FF-1 (c131), reporter ref, DMSO 0.345569",0.2779
same,FF vs RL,"[1]; block FF-1 (c131), reporter reference, DMSO 0.39984, 0.291299",0.281 and 0.2748
same,averages of FF vs RL 2,"[1]; reporter minus46, DMSO 0.0506669",0.04195
same,FF vs RL 2,"[1]; reporter minus 46, DMSO 3.43E-02, 5.07E-02",4.79E-02 and 3.60E-02
same,FF vs RL 2,"[1]; reporter minus 46 plus 50, DMSO 3.05E-02, 1.38E-02",1.96E-02 and 1.61E-02
same,averages of FF vs RL 2,"[1]; reporter minus 95, DMSO 0.0221428",0.01783
same,averages of FF vs RL 2,"[1]; reporter ref, DMSO 0.0383109",0.05624
same,FF vs RL 2,"[1]; reporter reference, DMSO 3.69E-02, 3.97E-02",6.80E-02 and 4.45E-02
same,"reporter activity norm to DMSO, minus46","[1]; minus46 reporter, 95nt from uORF to main ORF experiment, Figure 4N source data, replicate experiments, DMSO = 1",0.8043 and 1.051 and 0.8279
same,"95nt from uORF to main ORF experiment, minus46, average (DMSO = 1)",[1]; minus46 reporter,0.8942
same,"reporter activity norm to DMSO, minus 95","[1]; minus 95 (nt) reporter, 95nt from uORF to main ORF experiment, Figure 4N source data, replicate experiments, DMSO = 1",1.049 and 0.5709 and 0.8051
same,"95nt from uORF to main ORF experiment, minus 95nt, average (DMSO = 1)",[1],0.8085
same,"reporter activity norm to DMSO, ref","[1]; ref reporter, 95nt from uORF to main ORF experiment, Figure 4N source data, replicate experiments, DMSO = 1",1.159 and 1.66 and 1.468
same,"95nt from uORF to main ORF experiment, ref, average (DMSO = 1)",[1]; ref reporter,1.429
NS(=O)(=O)c1cccc(-c2ccc(C3Nc4ccccc4-c4nc5ccccc5n43)o2)c1 (stereo not drawn) [1Ai-0050],IC50,eIF1A-RPS10 interaction,26 µM
same,GUG vs AUG data (%),[2],2.02% and 1.27% and 1.28% and 1.15%
same,GUG vs AUG (%) Average,[2],1.43%
same,"US/DS ratio, average",[3],1.064
same,"LONG (summary - All), normalized to DMSO",[4],1.25 and 0.94 and 0.54 and 1.63
same,"SHORT (summary - All), normalized to DMSO",[4],0.72 and 0.91
same,average ( long vs short ratio),[4],1.337
CNc1nc(-c2cc(C)n(C)c2C)cs1 [1Ai-0153],IC50,eIF1A-RPS10 interaction,27 µM
same,GUG vs AUG data (%),[2],1.78% and 1.33% and 1.95% and 1.92%
same,GUG vs AUG (%) Average,[2],1.74%
same,"LONG (summary - All), normalized to DMSO",[4],0.73 and 0.87 and 1.53 and 0.96 and 1.14
same,"SHORT (summary - All), normalized to DMSO",[4],0.72 and 0.98 and 1.54 and 1.66 and 1.69 and 1.65
same,"Long 5'UTR reporter luciferase activity, normalized to DMSO (=1), single replicates","[4]; compound at 20 µM, left data block (Long), source data of Fig 1C",0.734 and 0.8747 and 1.529 and 0.9608 and 2.673 and 1.141
same,average ( long vs short ratio),[4],0.762
CNc1nc(-c2cc(C)n(C)c2C)cs1 [compound 153],CUG vs AUG (%),[2]; [5],5.937%
same,GUG vs AUG (%),[2]; [5],1.586%
O=C(Nc1nc(-c2c[nH]c3ccccc23)cs1)c1cc(=O)[nH]c2ccccc12 [compound 403],CUG vs AUG (%),[2]; compound at 5uM (summary head),8.469%
same,GUG vs AUG (%),[2]; compound at 5uM (summary head),1.79%
